Read-outs that look alike come from different tables or passages of the source.
Legend:
[1] = system: Plasmodium falciparum T96 Chloroquinresistente Zellinie B; experiment: microbe, parasite or virus in culture; type: cell-based; conditions: for IC50: Plasmodium falciparum, Erythrocyte, over 2 cycles
Source text: (§1) • a) Durch konventionelles Züchten des Stammes Plasmodium falciparum T96 in einer 2 % (V/V) Suspension von humanen Erythrozyten wird der Grundorganismus-Zellinie A fortgepflanzt, welche eine normale Empfindlichkeit gegenüber Chloroquin aufweist. • b) Zellinie A des obigen Stammes wird unter analogen Standardbedingungen wie unter a) gezüchtet, jedoch mit Zusatz von immer ansteigenden Konzentrationen von Chloroquin, bis eine Chloroquinresistente Zellinie B resultiert, welche weiterhin in Kulturmedien mit einer 500 nM-Konzentration von Chloroquin andauernd normales Wachstum (dieselbe Wachstumsraten wie Zellinie A) aufweist.
(§2) • I. Die Züchtung von Testorganismen erfolgt unter den für Züchtung von Plasmodien üblichen Bedingungen auf einer 2 % Suspension von humanen Erythrozyten, supplementiert mit 50 mg/1 Hypoxanthin und gegebenenfalls unter Zugabe der getesteten Hemmsubstanz in gewünschter Konzentration. Die initiale Parasitämie (= der prozentuelle Anteil der zu Beginn von Plasmodien infizierten Erythrozyten) beträgt 1-2 %. Das Resultat (Hemmwirkung) wird als IC50 ausgewertet, d.h. jene Konzentration des Wirkstoffes, die eine Senkung der finalen Parasitämie um 50 %, d.h. eine 50%ige Hemmung des Wachstums, verursacht. • II. In einer alternativen Versuchsanordnung wird beim Einhalten aller übrigen Bedingungen ohne Zugabe von Hypoxanthin und mit einer initialen Parasitämie von 0,5 % gearbeitet.

[2] = system: Bakterien; conditions: cited from earlier work
[3] = system: Plasmodium falciparum T96 Zellinie A; experiment: Growth inhibition of Plasmodium falciparum T96 cell line A (normal chloroquine sensitivity) in culture on human erythrocytes; type: cell-based; conditions: Erythrocyte, over 2 cycles
Source text: as §1
as §2, with “In einer alternativen Versuchsanordnung wird beim Einhalten aller übrigen Bedingungen ohne Zugabe von Hypoxanthin und mit einer initialen Parasitämie von 0,5 % gearbeitet.” left out

[4] = system: P. vinckei; conditions: cited from earlier work
[5] = system: Plasmodium falciparum in Kultur an menschlichen Erythrozyten; conditions: in vitro culture; cited from earlier work
[6] = very high doses; cited from earlier work

Compound	Vermehrungsfaktor ([1]; Versuchsanordnung I with 500 nM Chloroquin, within 48 hours)	antibakterielle Wirksamkeit in vitro [2]	IC50 ([3]; Versuchsanordnung I) [µM]	IC50 ([3]; Versuchsanordnung II) [µM]	IC50 ([1]; Versuchsanordnung I, with 400 nM Chloroquin added) [µM]	IC50 ([1]; Versuchsanordnung I, without Chloroquin in test medium) [µM]	IC50 ([1]; Versuchsanordnung II, without Chloroquin in test medium) [µM]	Wirksamkeit gegen Chloroquin-resistenten Stamm im Vergleich zu normal empfindlichem Stamm ([1]; comparison of resistant with sensitive strain grown under the same conditions)	Wachstum des Parasiten ([4]; 0,2 g/kg)	Wachstum des Parasiten ([4]; 1,0 g/kg)	Wachstum / Abtötung in vitro [5]	Toxikologie [6]
CCN(CC)CCCC(C)Nc1ccnc2cc(Cl)ccc12 (stereo not drawn) [Chloroquin, 7-Chlor-4-(4-diethylamino-l-methylbutylamino)chinolin]	7-9	–	–	–	–	–	–	–	–	–	–	–
CC1(C(=O)O)CSC(c2ncccc2O)=N1 (stereo not shown) [Desferri-ferrithiocin, 2-(3-Hydroxy-2-pyridyl)-4-methyl-2-thiazolin-4-carbonsäure]	–	gewisse allgemeine antibakterielle Wirksamkeit in vitro	–	–	–	–	–	–	–	–	–	–
CC(=O)N(O)CCCCCNC(=O)CCC(=O)N(O)CCCCCNC(=O)CCC(=O)N(O)CCCCCN [Desferrioxamin B, 6,17,28-Trihydroxy-7,10,18,21,29-pentaoxo-6,11,17,22,28-pentaaza-triacontanylamin]	–	gewisse allgemeine antibakterielle Wirksamkeit in vitro	17 ± 3	5	3 ± 1	6 ± 1.5	2 ± 1	um fast eine Grössenordnung wirksamer	das Wachstum des Parasiten deutlich hemmt	ihn vollständig tötet	nicht nur in ihrem Wachstum gehemmt, sondern auch getötet	auch in sehr hohen Dosen toxikologisch einwandfrei

Reference: patent EP0214101A2, “Use of iron(III) chelators of the type desferrioxamine-B and desferriferrithiocine in the treatment of malaria” (CIBA-GEIGY AG, priority 1985, dated 1987)
